These results are taken from patent publication US20070128217A1 (priority 2003, published 2007).

In assay [1] the test system is control sera (pooled serum of ten healthy LUMC hospital workers; commercial negative donor pooled serum from the Dutch bloodbank). The assay is classed as binding, human. On the set-up: Binding of Control serum LUMC to linear peptides / Binding of Control serum Blood-bank to linear peptides / Binding of Control serum LUMC to looped peptides / Binding of Control Serum Blood-Bank to Looped peptides / Binding of Control serum LUMC to linear peptides of the protein M of SARS-CoV Urbani / Binding of Control serum Blood-bank to linear peptides of the protein M of SARS-CoV Urbani / Binding of Control serum LUMC to looped peptides of the protein M of SARS-CoV Urbani / Binding of Control Serum Blood-Bank to Looped peptides of the protein M of SARS-CoV Urbani: unit not given here.

The subject of assay [2] is rabbit serum obtained by immunizing a rabbit with the SARS-CoV strain Frankfurt 1. The class given is binding. On the set-up: Binding of a rabbit serum to linear peptides / Binding of a rabbit serum to looped peptides / Rabbit serum linear peptides / Rabbit serum looped peptides / Binding of a rabbit serum to linear peptides of protein N of SARS-CoV Urbani (Rabbit serum linear peptides) / Binding of a rabbit serum to looped/cyclic peptides of protein N of SARS-CoV Urbani (Rabbit serum looped peptides): unit not given here.

In assay [3] the test system is recombinant human anti-SARS-CoV antibody 03-018. The class given is binding. On the set-up: Binding of antibody 03-018 to linear peptides of the N protein of SARS-CoV Urbani / Binding of antibody 03-018 to looped/cyclic peptides of the N protein of SARS-CoV Urbani: unit not given here.

IKLDDKDPQFKDNVI: in assay [1], the “Control Serum Blood-Bank Looped peptides” value amounted to 0.6, the “Control serum Blood-bank linear peptides” value is 0.9, the “Control serum LUMC linear peptides” value amounted to 0.9 and the “Control serum LUMC looped peptides” value is listed as 0.6. Besides, in assay [2], the “Binding of a rabbit serum to linear peptides of protein N of SARS-CoV Urbani (Rabbit serum linear peptides)” value (“Binding … (Rabbit serum linear peptides)” below) was determined as 0.1 and the “Binding of a rabbit serum to looped/cyclic peptides of protein N of SARS-CoV Urbani (Rabbit serum looped peptides)” value came out at 0.3. Also, in assay [3], the “Binding of antibody 03-018 to linear peptides of the N protein of SARS-CoV Urbani” value is given as 0.1 and the “Binding of antibody 03-018 to looped/cyclic peptides of the N protein of SARS-CoV Urbani” value is on record as 0.2.
With LPQGTTLPKGFYAEG, in assay [1], the “Binding of Control Serum Blood-Bank to Looped peptides” value is on record as 0.9, the “Binding of Control serum Blood-bank to linear peptides” value is given as 0.8, the “Binding of Control serum LUMC to linear peptides” value is 0.8 and the “Binding of Control serum LUMC to looped peptides” value was found to be 0.8. In assay [2], the “Binding … (Rabbit serum linear peptides)” value is on record as 0.1 and the “Binding of a rabbit serum to looped/cyclic peptides of protein N of SARS-CoV Urbani (Rabbit serum looped peptides)” value is listed as 0.7. Moreover, in assay [3], the “Binding of antibody 03-018 to linear peptides of the N protein of SARS-CoV Urbani” value is recorded as 0.1 and the “Binding of antibody 03-018 to looped/cyclic peptides of the N protein of SARS-CoV Urbani” value was 0.3.
As for NNAATVLQLPQGTTL, in assay [1], the “Binding of Control Serum Blood-Bank to Looped peptides” value is given as 0.8, the “Binding of Control serum Blood-bank to linear peptides” value is on record as 0.9, the “Binding of Control serum LUMC to linear peptides” value is on record as 0.9 and the “Binding of Control serum LUMC to looped peptides” value was found to be 0.8. Moreover, in assay [2], the “Binding … (Rabbit serum linear peptides)” value came to 0.2 and the “Binding of a rabbit serum to looped/cyclic peptides of protein N of SARS-CoV Urbani (Rabbit serum looped peptides)” value is 0.4. In assay [3], the “Binding of antibody 03-018 to linear peptides of the N protein of SARS-CoV Urbani” value is 0.1 and the “Binding of antibody 03-018 to looped/cyclic peptides of the N protein of SARS-CoV Urbani” value turned out to be 0.3.
NSPARMASGGGETAL: in assay [1], the “Binding of Control Serum Blood-Bank to Looped peptides” value was 0.3, the “Binding of Control serum Blood-bank to linear peptides” value came out at 0.9, the “Binding of Control serum LUMC to linear peptides” value is listed as 0.7 and the “Binding of Control serum LUMC to looped peptides” value turned out to be 0.4. In assay [2], the “Binding … (Rabbit serum linear peptides)” value turned out to be 0.3 and the “Binding of a rabbit serum to looped/cyclic peptides of protein N of SARS-CoV Urbani (Rabbit serum looped peptides)” value came out at 0.3. Besides, in assay [3], the “Binding of antibody 03-018 to linear peptides of the N protein of SARS-CoV Urbani” value is 0.1 and the “Binding of antibody 03-018 to looped/cyclic peptides of the N protein of SARS-CoV Urbani” value is recorded as 0.2.
PQFKDNVILLNKHID: in assay [1], the “Control Serum Blood-Bank Looped peptides” value is on record as 0.7, the “Control serum Blood-bank linear peptides” value is on record as 0.7, the “Control serum LUMC linear peptides” value is 0.7 and the “Control serum LUMC looped peptides” value turned out to be 0.8. In assay [2], the “Binding … (Rabbit serum linear peptides)” value is given as 0.2 and the “Binding of a rabbit serum to looped/cyclic peptides of protein N of SARS-CoV Urbani (Rabbit serum looped peptides)” value amounted to 0.4. In addition, in assay [3], the “Binding of antibody 03-018 to linear peptides of the N protein of SARS-CoV Urbani” value is on record as 0.1 and the “Binding of antibody 03-018 to looped/cyclic peptides of the N protein of SARS-CoV Urbani” value worked out at 0.2.
For the sequence PRQKRTATKQYNVTQ, in assay [1], the “Binding of Control Serum Blood-Bank to Looped peptides” value was determined as 1.0, the “Binding of Control serum Blood-bank to linear peptides” value worked out at 1.0, the “Binding of Control serum LUMC to linear peptides” value is 0.9 and the “Binding of Control serum LUMC to looped peptides” value is listed as 0.9. Moreover, the “Recognition of the peptide by the rabbit serum” value (from here on “Recognition of the peptide”) in assay [2] is “recognized”. Also, in assay [3], the “Binding of antibody 03-018 to linear peptides of the N protein of SARS-CoV Urbani” value is recorded as 0.1 and the “Binding of antibody 03-018 to looped/cyclic peptides of the N protein of SARS-CoV Urbani” value was determined as 0.2.
Consider QFKDNVILLNKHIDA, for which, in assay [1], the “Control Serum Blood-Bank Looped peptides” value is given as 0.9, the “Control serum Blood-bank linear peptides” value was found to be 0.6, the “Control serum LUMC linear peptides” value is on record as 0.6 and the “Control serum LUMC looped peptides” value was 0.8. For the same sequence, in assay [2], the “Binding … (Rabbit serum linear peptides)” value worked out at 0.1 and the “Binding of a rabbit serum to looped/cyclic peptides of protein N of SARS-CoV Urbani (Rabbit serum looped peptides)” value worked out at 0.7. For the same sequence, in assay [3], the “Binding of antibody 03-018 to linear peptides of the N protein of SARS-CoV Urbani” value stood at 0.1 and the “Binding of antibody 03-018 to looped/cyclic peptides of the N protein of SARS-CoV Urbani” value was 0.3.
On to QGTTLPKGFYAEGSR, for which, in assay [1], the “Binding of Control Serum Blood-Bank to Looped peptides” value is on record as 0.7, the “Binding of Control serum Blood-bank to linear peptides” value turned out to be 0.8, the “Binding of Control serum LUMC to linear peptides” value was found to be 0.7 and the “Binding of Control serum LUMC to looped peptides” value is on record as 0.7. For the same sequence, in assay [2], the “Binding … (Rabbit serum linear peptides)” value was 0.1 and the “Binding of a rabbit serum to looped/cyclic peptides of protein N of SARS-CoV Urbani (Rabbit serum looped peptides)” value came out at 0.6. In assay [3], the “Binding of antibody 03-018 to linear peptides of the N protein of SARS-CoV Urbani” value stood at 0.1 and the “Binding of antibody 03-018 to looped/cyclic peptides of the N protein of SARS-CoV Urbani” value came out at 0.2.
In the case of QKRTATKQYNVTQAF, in assay [1], the “Binding of Control Serum Blood-Bank to Looped peptides” value turned out to be 0.8, the “Binding of Control serum Blood-bank to linear peptides” value is listed as 0.8, the “Binding of Control serum LUMC to linear peptides” value was found to be 0.7 and the “Binding of Control serum LUMC to looped peptides” value turned out to be 0.8. Moreover, in assay [2], the “Recognition of the peptide” value is on record as “recognized”. Moreover, in assay [3], the “Binding of antibody 03-018 to linear peptides of the N protein of SARS-CoV Urbani” value is recorded as 0.1 and the “Binding of antibody 03-018 to looped/cyclic peptides of the N protein of SARS-CoV Urbani” value is recorded as 0.2.
Consider QLPQGTTLPKGFYAE, for which, in assay [1], the “Binding of Control Serum Blood-Bank to Looped peptides” value was determined as 0.6, the “Binding of Control serum Blood-bank to linear peptides” value amounted to 0.9, the “Binding of Control serum LUMC to linear peptides” value was found to be 0.7 and the “Binding of Control serum LUMC to looped peptides” value turned out to be 0.6. In addition, in assay [2], the “Binding … (Rabbit serum linear peptides)” value was found to be 0.2 and the “Binding of a rabbit serum to looped/cyclic peptides of protein N of SARS-CoV Urbani (Rabbit serum looped peptides)” value came out at 0.4. Moreover, in assay [3], the “Binding of antibody 03-018 to linear peptides of the N protein of SARS-CoV Urbani” value stood at 0.1 and the “Binding of antibody 03-018 to looped/cyclic peptides of the N protein of SARS-CoV Urbani” value is on record as 0.2.
In the case of RTATKQYNVTQAFGR, in assay [1], the “Binding of Control Serum Blood-Bank to Looped peptides” value is reported as 0.8, the “Binding of Control serum Blood-bank to linear peptides” value worked out at 0.9, the “Binding of Control serum LUMC to linear peptides” value worked out at 0.8 and the “Binding of Control serum LUMC to looped peptides” value amounted to 0.9. In addition, in assay [2], the “Recognition of the peptide” value is “recognized”. Further, in assay [3], the “Binding of antibody 03-018 to linear peptides of the N protein of SARS-CoV Urbani” value is reported as 0.1 and the “Binding of antibody 03-018 to looped/cyclic peptides of the N protein of SARS-CoV Urbani” value is given as 0.2.
For TLPKGFYAEGSRGGS, in assay [1], the “Binding of Control Serum Blood-Bank to Looped peptides” value amounted to 0.5, the “Binding of Control serum Blood-bank to linear peptides” value came out at 0.7, the “Binding of Control serum LUMC to linear peptides” value was 1.2 and the “Binding of Control serum LUMC to looped peptides” value was 0.5. For the same sequence, in assay [2], the “Binding … (Rabbit serum linear peptides)” value is 0.5 and the “Binding of a rabbit serum to looped/cyclic peptides of protein N of SARS-CoV Urbani (Rabbit serum looped peptides)” value worked out at 0.3. In assay [3], the “Binding of antibody 03-018 to linear peptides of the N protein of SARS-CoV Urbani” value is given as 0.1 and the “Binding of antibody 03-018 to looped/cyclic peptides of the N protein of SARS-CoV Urbani” value is recorded as 0.2.
Turning to VLQLPQGTTLPKGFY, in assay [1], the “Binding of Control Serum Blood-Bank to Looped peptides” value stood at 0.7, the “Binding of Control serum Blood-bank to linear peptides” value came out at 0.7, the “Binding of Control serum LUMC to linear peptides” value is 0.6 and the “Binding of Control serum LUMC to looped peptides” value came to 0.8. For the same sequence, in assay [2], the “Binding … (Rabbit serum linear peptides)” value is reported as 0.2 and the “Binding of a rabbit serum to looped/cyclic peptides of protein N of SARS-CoV Urbani (Rabbit serum looped peptides)” value is listed as 0.4. In assay [3], the “Binding of antibody 03-018 to linear peptides of the N protein of SARS-CoV Urbani” value was determined as 0.1 and the “Binding of antibody 03-018 to looped/cyclic peptides of the N protein of SARS-CoV Urbani” value amounted to 0.3.
